Laboratory results reported in US10821115B2, “Compounds that inhibit Mcl-1 protein” (priority 2017, dated 2020).
Where two headings read alike, the source gives them in different places.

Key:
[1] = target: recombinant human Mcl-1 (residues 171-327) / Bim interaction (Homo sapiens (Human), UniProt Q07820); assay: biochemical; type: binding; settings: read-out: Mcl-1 HTRF IC50
Experimental: The inhibition of the Mcl-1/Bim interaction was measured using a time-resolved fluorescence resonance energy transfer (TR-FRET) assay. […] The TR-FRET assay was conducted in a 384-well white OptiPlate™ (PerkinElmer, Waltham, Mass.) in a total volume of 40 μL. The reaction mixture contained 0.1 nM Mcl-1(171-327), 0.05 nM biotin-Bim (51-76), 0.05 nM LANCE® Eu-W1024 Anti-6×His (PerkinElmer), 0.072 nM Streptavidin-Xlent (Cisbio, Bedford, Mass.), and serially diluted test compounds in the binding buffer of 20 mM Hepes, pH 7.5, 150 mM NaCl, 0.016 mM Brij®35, and 1 mM dithiothreitol. Test compounds were pre-incubated with Mcl-1(171-327) and biotin-Bim (51-76) for 60 min before addition of the detection mixture (LANCE® Eu-W1024 Anti-6×His and Streptavidin-Xlent). The reaction plates were further incubated overnight and then were read on an Envision® multimode reader (PerkinElmer). Fluorescence signals were measured at 620 nm (40-nm bandwidth) and 665 nm (7.5-nm bandwidth) with a 60 is delay after excitation at 320 nm (75-nm bandwidth). The signal ratio at 665/620 nm corresponded to the Mcl-1/Bim interaction and was used in all data analyses. The IC50 values of test compounds were determined from duplicate data by analyzing competition curves using a four-parameter sigmoidal model in GraphPad Prism (GraphPad Software, San Diego, Calif.) or in Genedata Screener® (Genedata, Basel, Switzerland).

[2] = test system: human multiple myeloma cell line, OPM-2; assay: Cell viability assay (OPM-2 10 FBS), CellTiter-Glo; type: cell-based; settings: Homo sapiens, OPM-2, 16 h, read-out: OPM-2 10% FBS IC50 IP, OPM-2 cells, 10% FBS, 16 h, CellTiter-Glo
In short: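 OPM-2 cells at 3000 cells/well in RPMI 1640 with 10% FBS were exposed to serially diluted compounds for 16 h at 37 °C, 5% CO2.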

[3] = TR-FRET, Mcl-1(171-327) / biotin-Bim (51-76)

recombinant human Mcl-1 (residues 171-327) / Bim interaction, sequence (Q07820 171-327): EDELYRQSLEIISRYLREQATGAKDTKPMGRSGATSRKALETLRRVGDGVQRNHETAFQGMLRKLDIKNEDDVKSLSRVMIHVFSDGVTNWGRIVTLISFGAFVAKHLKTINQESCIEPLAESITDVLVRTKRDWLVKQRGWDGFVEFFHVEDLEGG

Row | SMILES | IC50 [1] [nM] | IC50 [2] [nM] | IC50 [1, 3] [nM]
1 | CC#C[C@]1(O)/C=C/C[C@H](C)[C@@H](C)S(=O)(=O)NC(=O)c2ccc3c(c2)N(C[C@@H]2CC[C@H]21)C[C@@]1(CCCc2cc(Cl)ccc21)CO3 [Example 100499, (1S,3′R,6′R,7′S,8′E,11′S,12′R)-6-chloro-7′-hydroxy-11′,12′-dimethyl-7′-(1-propyn-1-yl)-3,4-dihydro-2H,15′H-spiro[naphthalene-1,22′-[20]oxa[13]thia[1,14]diazatetracyclo [14.7.2.0~3,6~.0~19,24~]pentacosa[8,16,18,24]tetraen]-15′-one 13′,13′-dioxide] | 0.509 | 1120 | 
2 | CO[C@@]1(CC2=NCCO2)/C=C/C[C@H](C)[C@@H](C)S(=O)(=O)NC(=O)c2ccc3c(c2)N(C[C@@H]2CC[C@H]21)C[C@@]1(CCCc2cc(Cl)ccc21)CO3 [Example 100500, (1S,3′R,6′R,7′S,8′E,11′S,12′R)-6-chloro-7′-(4,5-dihydro-1,3-oxazol-2-ylmethyl)-7′-methoxy-11′,12′-dimethyl-3,4-dihydro-2H,15′H-spiro[naphthalene-1,22′-[20]oxa[13]thia[1,14]diazatetracyclo [14.7.2.0~3,6~.0~19,24~]pentacosa[8,16,18,24]tetraen]-15′-one 13′,13′-dioxide] |  | 71 | 0.049
3 | CC#C[C@]1(OC)/C=C/C[C@H](C)[C@@H](C)S(=O)(=O)NC(=O)c2ccc3c(c2)N(C[C@@H]2CC[C@H]21)C[C@@]1(CCCc2cc(Cl)ccc21)CO3 [Example 100501, (1S,3′R,6′R,7′S,8′E,11′S,12′R)-6-chloro-7′-methoxy-11′,12′-dimethyl-7′-(1-propyn-1-yl)-3,4-dihydro-2H,15′H-spiro[naphthalene-1,22′-[20]oxa[13]thia[1,14]diazatetracyclo [14.7.2.0~3,6~.0~19,24~]pentacosa[8,16,18,24]tetraen]-15′-one 13′,13′-dioxide] |  | 518 | 0.09
4 | C#C[C@]1(OC)/C=C/C[C@H](C)[C@@H](C)S(=O)(=O)NC(=O)c2ccc3c(c2)N(C[C@@H]2CC[C@H]21)C[C@@]1(CCCc2cc(Cl)ccc21)CO3 [Example 100502, (1S,3′R,6′R,7′S,8′E,11′S,12′R)-6-chloro-7′-ethynyl-7′-methoxy-11′,12′-dimethyl-3,4-dihydro-2H,15′H-spiro[naphthalene-1,22′-[20]oxa[13]thia[1,14]diazatetracyclo [14.7.2.0~3,6~.0~19,24~]pentacosa[8,16,18,24]tetraen]-15′-one 13′,13′-dioxide] |  | 393 | 0.29
5 | C#C[C@@]1(OC)/C=C/C[C@H](C)[C@@H](C)S(=O)(=O)NC(=O)c2ccc3c(c2)N(C[C@@H]2CC[C@H]21)C[C@@]1(CCCc2cc(Cl)ccc21)CO3 [Example 100503, (1S,3′R,6′R,7′R,8′E,11′S,12′R)-6-chloro-7′-ethynyl-7′-methoxy-11′,12′-dimethyl-3,4-dihydro-2H,15′H-spiro[naphthalene-1,22′-[20]oxa[13]thia[1,14]diazatetracyclo [14.7.2.0~3,6~.0~19,24~]pentacosa[8,16,18,24]tetraen]-15′-one 13′,13′-dioxide] |  | 706 | 0.493
6 | C#C[C@]1(OCCN2CCOCC2)/C=C/C[C@H](C)[C@@H](C)S(=O)(=O)NC(=O)c2ccc3c(c2)N(C[C@@H]2CC[C@H]21)C[C@@]1(CCCc2cc(Cl)ccc21)CO3 [Example 100504, (1S,3′R,6′R,7′S,8′E,11′S,12′R)-6-chloro-7′-ethynyl-11′,12′-dimethyl-7′-(2-(4-morpholinyl)ethoxy)-3,4-dihydro-2H,15′H-spiro[naphthalene-1,22′-[20]oxa[13]thia[1,14]diazatetracyclo [14.7.2.0~3,6~.0~19,24~]pentacosa[8,16,18,24]tetraen]-15′-one 13′,13′-dioxide] |  | 1890 | 0.803
